Structures are written as SMILES. Structures can show the parent of a compound that is named as a salt.

One series in a line: Bioavailability. To be noted: in vivo.
For series [1], the system named is conscious dogs having renal hypertension. Description: Blood pressure (MAP, telemetry) in conscious dogs having renal hypertension. It counts as in vivo, dog (German sheepdogs). To be noted: FIG. 1, conscious renal hypertensive dogs. As to the method: The antihypertensive effect of the combination was investigated in conscious dogs having renal hypertension. The hypertension was produced in German sheepdogs (weight 23-30 kg) using known methods in which one kidney is wrapped with cellophane and a stenosis is formed in the renal artery of the contralateral kidney using an occluder. The blood pressure was measured with a catheter implanted in the abdominal aorta and connected to a transmitter in the abdominal, cavity (telemetry). FIG. 1 illustrates the effect of cilazapril (10 mg/kg per os) and Compound A (30 mg/kg per os) alone, as well as, the effect of the simultaneous administration of the same dosages of the two substances (n=3 dogs for cilazapril and the combination, n=4 dogs for Compound A).

The subject of series [2] is media of the right carotid artery. Description: Cross-section surface (area) of the media of the carotid artery in rats after 15 days of treatment. Format: in vivo, rat (male, strain RoRo). To be noted: rat carotid artery; for area of the media: cilazapril 10 mg/kg daily in feed, Compound A 30 mg/kg by probang, control 89000±5000 μm^2, combination p<0.05 (Student t-test); for effect of individual treatment on media area: result in words. As to the method:
The influence of the individual compounds and their combination on the blood vessels was investigated in rats. Male rats, strain: RoRo (weight about 400 g; aged 4-5 months; Institut fur Biologisch-Medizinische Forschung, Fullinsdorf, CH) were used. The animals were divided randomly into a control group and into treatment groups. The duration of the treatment was 15 days. Cilazapril was admixed with the feed in an amount such that the daily intake was on average 10 mg/kg and Compound A (30 mg/kg) was administered using a probang. The control animals received the same laboratory feed without additive.
After 15 days, the rats were anaesthetized with ether and the carotid artery was fixed by perfusion with fixative agent (2.5% glutaraldehyde in 0.1M phosphate buffer, pH 7.4). For this, a probe was passed through the left ventricle of the heart into the ascending aorta (inflow) and a second probe was pushed through the right ventricle into the auricle (discharge).The vascular system was firstly rinsed with 10 ml of buffered isotonic NaCl solution and then fixed for 15 minutes with fixative at a pressure of 11.7 kPa. Subsequently, the right carotid artery was dissected, freed from adhering tissue and placed in 2.5% glutaraldehyde for further fixation. Each artery was divided into five vascular segments from the distal end to the proximal end, dehydrated and embedded in EPON 12 (Registered Mark of Shell A.G.). The middle segment was used for the morphological investigations. Semi-thin cross-sections (1 μm thick) were colored with toluidine blue and basic fuchsin. The cross-section surface of the media was measured with the morphometry system DIASYS (Datalab, Heinz Meyer, CH-3367 Thorigen).

In general, bioavailability refers to dose-corrected exposure relative to a reference, in per cent. Consider `CCOC(=O)[C@H](CCc1ccccc1)N[C@H]1CCCN2CCC[C@@H](C(=O)O)N2C1=O` [cilazapril, 9(S)-[1(S)-ethoxycarbonyl-3-phenylpropylamino]octahydro-10-oxo-6H-pyridazo[1,2-a][1,2]diazepine-1(S)-carboxylic acid], for which the bioavailability in the series “Bioavailability” stood at 70%. Besides, the “effect on blood pressure (MAP)” value in series [1] (cilazapril 10 mg/kg per os, Compound A 30 mg/kg per os, alone or simultaneously, result in words) was “without effect”. Besides, in series [2], the “area of the media” value came to 84000±11000 μm^2 and the “effect of individual treatment on media area” value is recorded as “without effect”.
`COCC(=O)OC1(CCN(C)CCCc2nc3ccccc3[nH]2)CCc2cc(F)ccc2C1C(C)C` (centres unmarked) [Compound A, [1S,2S]-2-[2-[[3-(2-benzimidazolyl)propyl]methylamino]ethyl]-6-fluoro-1,2,3,4-tetrahydro-1-isopropyl-2-naphthylmethoxyacetate dihydrochloride] came in with a bioavailability in “Bioavailability” of 80 to 100%. The “lowering of blood pressure (MAP)” value in series [1] (Compound A 30 mg/kg per os alone, n=4) was 10-20 mmHg. For the same compound, in series [2], the “area of the media” value worked out at 87000±4000 μm^2 and the “effect of individual treatment on media area” value is reported as “without effect”.

The record behind these values is patent US5620975A, “Pharmaceutical composition and method for the control of hypertension” (Hoffmann-La Roche Inc., priority 1991, dated 1997).
